# Experimental data reported in ChEMBL document CHEMBL3227957, “(+)-Isobutaclamol: a crystallographic, pharmacological, and biochemical study” (J Med Chem, 1979).
# Tests used:
# Rattus norvegicus [1] = assay: Inhibition of (+)-amphetamine-induced stereotyped behavior in ip dosed rat administered 15 mins prior to (+)-amphetamine challenge measured after 15 mins; type: functional; details: read-out: MED
# [2] = Displacement of [3H]haloperidol from rat striatum dopamine receptor
# [3] = Displacement of [3H]spiperone from calf striatum dopamine receptor; parameters: species or system Bos taurus
# Rattus norvegicus [4] = species: Rattus norvegicus; assay: Displacement of [3H]haloperidol from rat striatum dopamine receptor at 1000 nM
# Bos taurus = species: Bos taurus; assay: Displacement of [3H]spiperone from calf striatum dopamine receptor at 1000 nM
Compound,minimal effective dose (Rattus norvegicus [1]) [mg/kg],IC50 [2] [nM],IC50 [3] [nM],inhibition (Rattus norvegicus [4]) [%],inhibition (Bos taurus) [%]
Br.CC(C)(C)[C@]1(O)CCN2C[C@H]3Cc4ccccc4Cc4cccc(c43)[C@@H]2C1,0.31,0.8,0.8,–,–
CC(C)(C)[C@]1(O)CCN2C[C@H]3Cc4ccccc4Cc4cccc(c43)[C@@H]2C1.Cl (racemic),0.62,1.7,1.7,–,–
Br.CC(C)(C)[C@@]1(O)CCN2C[C@@H]3Cc4ccccc4Cc4cccc(c43)[C@H]2C1,> 25,–,–,0,0
